Test results from paper PMC6109843, “Novel Quinazolinone Inhibitors of ALK2 Flip between Alternate Binding Modes: Structure–Activity Relationship, Structural Characterization, Kinase Profiling, and Cellular Proof of Concept” (Journal of Medicinal Chemistry, 2018).

Tests used:
Experiment in all cases: DiscoverX scanEDGE kinase panel
Type in all cases: binding
Conditions in all cases: Cmpd Conc 1000 nM, read-out: % Ctrl
CDK11 = biological target: T1, CDK11 (Homo sapiens, UniProt Q9BWU1)
T1 construct: purchased DiscoverX (DiscoveRx) KINOMEscan scanEDGE / KdELECT
Description: (§1) We hypothesized that inhibitors of the normal and flipped modes would display distinct selectivity profiles.
(§2) 1. 16 and 21 kinome selectivity data
(§3) (P – phosphorylated; nP – nonphosphorylated; % Ctrl values show the % of DNAEtagged
(§4) kinase which was not displaced from a solid supported ligand by a test compound relative to
(§5) untreated control, quantified by qPCR).
(§6) Please note: ALKs 1, 2, 3, 4, 5 and 6 are listed by their gene symbols: ACVRL1 (ALK1), ACVR1
(§7) (ALK2), BMPR1A (ALK3), ACVR1B (ALK4), TGFBR1 (ALK5) and BMPR1B (ALK6)
(§8) Cmpd DiscoverX Gene Symbol Entrez Gene Symbol % Ctrl Cmpd Conc (nM)

GSK3B = biological target: T2, GSK3B (Homo sapiens, UniProt P49841)
T2 construct: purchased DiscoverX (DiscoveRx) KINOMEscan scanEDGE / KdELECT
Description: as §1, §2, §3, §4, §5, §6, §7, §8

RET = biological target: T3, RET (Homo sapiens, UniProt P07949)
T3 construct: purchased DiscoverX (DiscoveRx) KINOMEscan scanEDGE / KdELECT
Description: as §1, §2, §3, §4, §5, §6, §7, §8

PDGFRA = biological target: T4, PDGFRA (Homo sapiens, UniProt P16234)
T4 construct: purchased DiscoverX (DiscoveRx) KINOMEscan scanEDGE / KdELECT
Description: as §1, §2, §3, §4, §5, §6, §7, §8

SIK2 = biological target: T5, SIK2 (Homo sapiens, UniProt Q9H0K1)
T5 construct: purchased DiscoverX (DiscoveRx) KINOMEscan scanEDGE / KdELECT
Description: as §1, §2, §3, §4, §5, §6, §7, §8

ACVR1B (ALK4) = biological target: T6, ACVR1B (ALK4) (Homo sapiens, UniProt P36896)
T6 construct: purchased DiscoverX (DiscoveRx) KINOMEscan scanEDGE / KdELECT
Description: as §1, §2, §3, §4, §5, §6, §7, §8

RAF1 = biological target: T7, RAF1 (Homo sapiens, UniProt P04049)
T7 construct: purchased DiscoverX
Description: as §1, §2, §3, §4, §5, §6, §7, §8

PIK3CG = biological target: T8, PIK3CG (Homo sapiens, UniProt P48736)
T8 construct: purchased DiscoverX (DiscoveRx) KINOMEscan scanEDGE / KdELECT
T8 sequence (P48736 whole entry): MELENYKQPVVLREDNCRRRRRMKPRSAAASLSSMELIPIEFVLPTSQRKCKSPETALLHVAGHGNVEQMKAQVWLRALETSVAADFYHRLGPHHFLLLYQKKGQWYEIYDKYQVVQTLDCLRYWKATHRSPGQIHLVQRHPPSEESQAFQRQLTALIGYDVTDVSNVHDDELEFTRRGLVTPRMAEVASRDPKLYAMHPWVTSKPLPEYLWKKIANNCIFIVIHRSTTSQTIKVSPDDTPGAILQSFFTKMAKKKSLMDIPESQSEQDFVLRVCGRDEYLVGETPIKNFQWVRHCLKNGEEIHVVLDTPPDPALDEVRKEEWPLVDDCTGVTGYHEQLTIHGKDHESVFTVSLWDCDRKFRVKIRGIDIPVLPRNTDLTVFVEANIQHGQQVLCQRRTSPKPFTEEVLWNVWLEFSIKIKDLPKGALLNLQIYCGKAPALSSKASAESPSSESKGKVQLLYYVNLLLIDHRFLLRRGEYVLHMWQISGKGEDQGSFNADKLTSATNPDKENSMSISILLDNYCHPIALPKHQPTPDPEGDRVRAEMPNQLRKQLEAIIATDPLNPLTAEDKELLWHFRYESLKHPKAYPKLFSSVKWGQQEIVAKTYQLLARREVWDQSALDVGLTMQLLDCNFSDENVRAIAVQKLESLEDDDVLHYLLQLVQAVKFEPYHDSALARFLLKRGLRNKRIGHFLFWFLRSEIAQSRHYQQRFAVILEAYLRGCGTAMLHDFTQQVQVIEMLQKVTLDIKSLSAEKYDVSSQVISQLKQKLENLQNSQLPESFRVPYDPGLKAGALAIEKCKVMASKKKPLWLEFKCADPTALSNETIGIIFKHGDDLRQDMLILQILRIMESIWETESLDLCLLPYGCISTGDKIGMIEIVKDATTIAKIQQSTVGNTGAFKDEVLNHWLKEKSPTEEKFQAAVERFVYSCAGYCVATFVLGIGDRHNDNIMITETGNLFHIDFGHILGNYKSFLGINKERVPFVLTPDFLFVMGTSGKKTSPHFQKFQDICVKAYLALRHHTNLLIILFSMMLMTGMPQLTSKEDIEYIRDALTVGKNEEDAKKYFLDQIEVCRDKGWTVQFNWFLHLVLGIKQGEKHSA
Description: as §1, §2, §3, §4, §5, §6, §7, §8

PLK3 = biological target: T9, PLK3 (Homo sapiens, UniProt Q9H4B4)
T9 construct: purchased DiscoverX (DiscoveRx) KINOMEscan scanEDGE / KdELECT
Description: as §1, §2, §3, §4, §5, §6, §7, §8

ROCK2 = biological target: T10, ROCK2 (Homo sapiens, UniProt O75116)
T10 construct: purchased DiscoverX (DiscoveRx) KINOMEscan scanEDGE / KdELECT
Description: as §1, §2, §3, §4, §5, §6, §7, §8

ABL1EP = biological target: T11, ABL1EP (Homo sapiens, UniProt P00519)
T11 construct: purchased DiscoverX (DiscoveRx) KINOMEscan scanEDGE / KdELECT
Description: as §1, §2, §3, §4, §5, §6, §7, §8

RIOK2 = biological target: T12, RIOK2 (Homo sapiens, UniProt Q9BVS4)
T12 construct: purchased DiscoverX (DiscoveRx) KINOMEscan scanEDGE / KdELECT
T12 sequence (Q9BVS4 whole entry): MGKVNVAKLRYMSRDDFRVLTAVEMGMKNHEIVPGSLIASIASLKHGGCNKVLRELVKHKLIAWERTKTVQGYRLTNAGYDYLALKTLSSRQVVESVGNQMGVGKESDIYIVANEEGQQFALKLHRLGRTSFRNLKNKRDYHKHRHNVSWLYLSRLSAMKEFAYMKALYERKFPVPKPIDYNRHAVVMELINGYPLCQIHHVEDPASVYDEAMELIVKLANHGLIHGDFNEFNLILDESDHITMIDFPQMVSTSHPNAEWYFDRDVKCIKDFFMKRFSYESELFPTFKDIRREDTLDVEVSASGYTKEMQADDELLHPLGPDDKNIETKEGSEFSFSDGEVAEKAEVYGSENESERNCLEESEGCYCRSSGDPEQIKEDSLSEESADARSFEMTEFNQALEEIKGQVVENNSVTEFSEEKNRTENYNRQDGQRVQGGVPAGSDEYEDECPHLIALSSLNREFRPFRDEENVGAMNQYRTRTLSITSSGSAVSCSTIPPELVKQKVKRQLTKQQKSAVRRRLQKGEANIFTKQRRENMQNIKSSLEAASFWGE
Description: as §1, §2, §3, §4, §5, §6, §7, §8

CSF1R = biological target: T13, CSF1R (Homo sapiens, UniProt P07333)
T13 construct: purchased DiscoverX (DiscoveRx) KINOMEscan scanEDGE / KdELECT
Description: as §1, §2, §3, §4, §5, §6, §7, §8

JNK1 = biological target: T14, JNK1 (Homo sapiens, UniProt P45983)
T14 construct: purchased DiscoverX (DiscoveRx) KINOMEscan scanEDGE / KdELECT
Description: as §1, §2, §3, §4, §5, §6, §7, §8

IGF1R = biological target: T15, IGF1R (Homo sapiens, UniProt P08069)
T15 construct: purchased DiscoverX (DiscoveRx) KINOMEscan scanEDGE / KdELECT
Description: as §1, §2, §3, §4, §5, §6, §7, §8

SRPK3 = biological target: T16, SRPK3 (Homo sapiens, UniProt Q9UPE1)
T16 construct: purchased DiscoverX (DiscoveRx) KINOMEscan scanEDGE / KdELECT
Description: as §1, §2, §3, §4, §5, §6, §7, §8

ZAP70 = biological target: T17, ZAP70 (Homo sapiens, UniProt P43403)
T17 construct: purchased DiscoverX (DiscoveRx) KINOMEscan scanEDGE / KdELECT
T17 sequence (P43403 whole entry): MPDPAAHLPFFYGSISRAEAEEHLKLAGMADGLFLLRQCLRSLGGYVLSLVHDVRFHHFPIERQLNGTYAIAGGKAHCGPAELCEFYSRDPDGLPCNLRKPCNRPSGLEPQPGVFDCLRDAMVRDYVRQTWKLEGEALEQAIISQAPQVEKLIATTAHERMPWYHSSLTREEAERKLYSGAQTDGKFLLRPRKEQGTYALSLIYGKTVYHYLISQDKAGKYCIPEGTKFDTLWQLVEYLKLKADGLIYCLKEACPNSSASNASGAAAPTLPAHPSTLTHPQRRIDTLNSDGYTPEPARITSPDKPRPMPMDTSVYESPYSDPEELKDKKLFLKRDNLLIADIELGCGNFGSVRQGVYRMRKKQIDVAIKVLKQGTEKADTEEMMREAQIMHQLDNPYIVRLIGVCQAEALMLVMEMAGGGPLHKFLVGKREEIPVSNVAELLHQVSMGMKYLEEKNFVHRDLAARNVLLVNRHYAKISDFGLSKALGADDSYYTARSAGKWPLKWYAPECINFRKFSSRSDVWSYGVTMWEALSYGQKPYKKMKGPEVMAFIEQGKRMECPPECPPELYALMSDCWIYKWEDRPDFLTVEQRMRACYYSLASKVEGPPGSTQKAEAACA
Description: as §1, §2, §3, §4, §5, §6, §7, §8

DCAMKL1 = biological target: T18, DCAMKL1 (Homo sapiens, UniProt O15075)
T18 construct: purchased DiscoverX (DiscoveRx) KINOMEscan scanEDGE / KdELECT
Description: as §1, §2, §3, §4, §5, §6, §7, §8

AKT1 = biological target: T19, AKT1 (Homo sapiens, UniProt P31749)
T19 construct: purchased DiscoverX (DiscoveRx) KINOMEscan scanEDGE / KdELECT
Description: as §1, §2, §3, §4, §5, §6, §7, §8

AXL = biological target: T20, AXL (Homo sapiens, UniProt P30530)
T20 construct: purchased DiscoverX (DiscoveRx) KINOMEscan scanEDGE / KdELECT
Description: as §1, §2, §3, §4, §5, §6, §7, §8

ABL1EnP = biological target: T21, ABL1EnP (Homo sapiens, UniProt P00519)
T21 construct: purchased DiscoverX (DiscoveRx) KINOMEscan scanEDGE / KdELECT
Description: as §1, §2, §3, §4, §5, §6, §7, §8

KIT(D816H) = biological target: T22, KIT(D816H) (Homo sapiens, UniProt P10721, D816H)
T22 construct: purchased DiscoverX (DiscoveRx) KINOMEscan scanEDGE / KdELECT
Description: as §1, §2, §3, §4, §5, §6, §7, §8

JNK2 = biological target: T23, JNK2 (Homo sapiens, UniProt P45984)
T23 construct: purchased DiscoverX (DiscoveRx) KINOMEscan scanEDGE / KdELECT
T23 sequence (P45984 whole entry): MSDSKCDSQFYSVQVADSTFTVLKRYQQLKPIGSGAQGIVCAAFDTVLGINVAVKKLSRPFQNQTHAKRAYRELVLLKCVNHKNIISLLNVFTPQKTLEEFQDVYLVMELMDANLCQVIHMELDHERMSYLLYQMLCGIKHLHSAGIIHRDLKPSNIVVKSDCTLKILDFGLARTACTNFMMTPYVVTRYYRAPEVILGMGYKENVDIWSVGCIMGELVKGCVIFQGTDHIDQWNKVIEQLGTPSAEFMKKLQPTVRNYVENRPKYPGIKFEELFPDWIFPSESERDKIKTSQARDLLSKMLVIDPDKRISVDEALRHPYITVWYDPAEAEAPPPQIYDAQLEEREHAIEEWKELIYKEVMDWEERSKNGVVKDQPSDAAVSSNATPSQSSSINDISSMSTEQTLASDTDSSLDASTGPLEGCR
Description: as §1, §2, §3, §4, §5, §6, §7, §8

TYK2(JH1domain) = biological target: T24, TYK2(JH1domain) (Homo sapiens, UniProt P29597)
T24 construct: TYK2(JH1domain); purchased DiscoverX (DiscoveRx) KINOMEscan scanEDGE / KdELECT
Description: as §1, §2, §3, §4, §5, §6, §7, §8

BTK = biological target: T25, BTK (Homo sapiens, UniProt Q06187)
T25 construct: purchased DiscoverX (DiscoveRx) KINOMEscan scanEDGE / KdELECT
T25 sequence (Q06187 whole entry): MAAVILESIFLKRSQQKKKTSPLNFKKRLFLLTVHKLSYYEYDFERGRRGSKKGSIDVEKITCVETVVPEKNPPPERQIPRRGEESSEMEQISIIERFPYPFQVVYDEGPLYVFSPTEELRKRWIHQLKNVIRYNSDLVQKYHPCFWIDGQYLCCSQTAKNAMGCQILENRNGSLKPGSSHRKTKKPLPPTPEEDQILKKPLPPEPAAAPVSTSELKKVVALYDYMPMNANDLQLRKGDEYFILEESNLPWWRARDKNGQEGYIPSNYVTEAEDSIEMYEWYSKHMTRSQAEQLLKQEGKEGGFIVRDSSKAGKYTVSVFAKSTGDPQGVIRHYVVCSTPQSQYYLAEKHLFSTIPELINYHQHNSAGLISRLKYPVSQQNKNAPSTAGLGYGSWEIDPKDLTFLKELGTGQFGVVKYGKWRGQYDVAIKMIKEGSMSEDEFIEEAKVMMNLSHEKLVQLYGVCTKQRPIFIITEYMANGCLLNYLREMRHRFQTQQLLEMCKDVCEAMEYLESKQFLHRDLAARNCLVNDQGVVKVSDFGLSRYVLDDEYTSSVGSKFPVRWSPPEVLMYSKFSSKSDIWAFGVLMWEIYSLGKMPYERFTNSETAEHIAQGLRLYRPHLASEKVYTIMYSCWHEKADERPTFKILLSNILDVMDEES
Description: as §1, §2, §3, §4, §5, §6, §7, §8

CDK2 = biological target: T26, CDK2 (Homo sapiens, UniProt P24941)
T26 construct: purchased DiscoverX (DiscoveRx) KINOMEscan scanEDGE / KdELECT
Description: as §1, §2, §3, §4, §5, §6, §7, §8

MINK = biological target: T27, MINK (Homo sapiens, UniProt Q8N4C8)
T27 construct: purchased DiscoverX (DiscoveRx) KINOMEscan scanEDGE / KdELECT
Description: as §1, §2, §3, §4, §5, §6, §7, §8

PKACEalpha = biological target: T28, PKACEalpha (Homo sapiens, UniProt P17612)
T28 construct: purchased DiscoverX (DiscoveRx) KINOMEscan scanEDGE / KdELECT
Description: as §1, §2, §3, §4, §5, §6, §7, §8

p38Ebeta = biological target: T29, p38Ebeta (Homo sapiens, UniProt Q15759)
T29 construct: purchased DiscoverX (DiscoveRx) KINOMEscan scanEDGE / KdELECT
Description: as §1, §2, §3, §4, §5, §6, §7, §8

ABL1(T315I)EP = biological target: T30, ABL1(T315I)EP (Homo sapiens, UniProt P00519, T315I)
T30 construct: purchased DiscoverX (DiscoveRx) KINOMEscan scanEDGE / KdELECT
Description: as §1, §2, §3, §4, §5, §6, §7, §8

CDK3 = biological target: T31, CDK3 (Homo sapiens, UniProt Q00526)
T31 construct: purchased DiscoverX (DiscoveRx) KINOMEscan scanEDGE / KdELECT
Description: as §1, §2, §3, §4, §5, §6, §7, §8

MARK3 = biological target: T32, MARK3 (Homo sapiens, UniProt P27448)
T32 construct: purchased DiscoverX (DiscoveRx) KINOMEscan scanEDGE / KdELECT
T32 sequence (P27448 whole entry): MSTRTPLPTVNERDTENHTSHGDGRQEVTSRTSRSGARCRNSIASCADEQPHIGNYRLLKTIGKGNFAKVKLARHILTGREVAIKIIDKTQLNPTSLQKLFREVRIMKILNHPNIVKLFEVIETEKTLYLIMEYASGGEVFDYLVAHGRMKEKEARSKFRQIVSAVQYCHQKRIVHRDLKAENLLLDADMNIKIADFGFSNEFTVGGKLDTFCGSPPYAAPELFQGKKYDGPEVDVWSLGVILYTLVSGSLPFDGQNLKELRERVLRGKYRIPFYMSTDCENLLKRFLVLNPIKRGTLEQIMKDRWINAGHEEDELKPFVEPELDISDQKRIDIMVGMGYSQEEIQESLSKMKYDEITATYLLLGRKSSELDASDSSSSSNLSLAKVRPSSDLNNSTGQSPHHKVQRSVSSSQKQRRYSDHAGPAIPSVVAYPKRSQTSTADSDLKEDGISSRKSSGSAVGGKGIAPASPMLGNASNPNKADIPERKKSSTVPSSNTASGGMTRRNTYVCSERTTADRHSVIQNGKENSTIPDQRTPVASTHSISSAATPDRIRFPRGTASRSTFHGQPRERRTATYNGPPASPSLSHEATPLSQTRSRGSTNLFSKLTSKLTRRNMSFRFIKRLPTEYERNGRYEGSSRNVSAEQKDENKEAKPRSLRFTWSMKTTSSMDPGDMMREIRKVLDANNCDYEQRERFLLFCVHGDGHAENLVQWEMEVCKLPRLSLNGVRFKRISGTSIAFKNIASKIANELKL
Description: as §1, §2, §3, §4, §5, §6, §7, §8

CSNK1D = biological target: T33, CSNK1D (Homo sapiens, UniProt P48730)
T33 construct: purchased DiscoverX (DiscoveRx) KINOMEscan scanEDGE / KdELECT
Description: as §1, §2, §3, §4, §5, §6, §7, §8

PIM3 = biological target: T34, PIM3 (Homo sapiens, UniProt Q86V86)
T34 construct: purchased DiscoverX (DiscoveRx) KINOMEscan scanEDGE / KdELECT
Description: as §1, §2, §3, §4, §5, §6, §7, §8

TSSK1B = biological target: T35, TSSK1B (Homo sapiens, UniProt Q9BXA7)
T35 construct: purchased DiscoverX (DiscoveRx) KINOMEscan scanEDGE / KdELECT
Description: as §1, §2, §3, §4, §5, §6, §7, §8

CDK9 = biological target: T36, CDK9 (Homo sapiens, UniProt P50750)
T36 construct: purchased DiscoverX (DiscoveRx) KINOMEscan scanEDGE / KdELECT
Description: as §1, §2, §3, §4, §5, §6, §7, §8

MKNK1 = biological target: T37, MKNK1 (Homo sapiens, UniProt Q9BUB5)
T37 construct: purchased DiscoverX (DiscoveRx) KINOMEscan scanEDGE / KdELECT
T37 sequence (Q9BUB5 whole entry): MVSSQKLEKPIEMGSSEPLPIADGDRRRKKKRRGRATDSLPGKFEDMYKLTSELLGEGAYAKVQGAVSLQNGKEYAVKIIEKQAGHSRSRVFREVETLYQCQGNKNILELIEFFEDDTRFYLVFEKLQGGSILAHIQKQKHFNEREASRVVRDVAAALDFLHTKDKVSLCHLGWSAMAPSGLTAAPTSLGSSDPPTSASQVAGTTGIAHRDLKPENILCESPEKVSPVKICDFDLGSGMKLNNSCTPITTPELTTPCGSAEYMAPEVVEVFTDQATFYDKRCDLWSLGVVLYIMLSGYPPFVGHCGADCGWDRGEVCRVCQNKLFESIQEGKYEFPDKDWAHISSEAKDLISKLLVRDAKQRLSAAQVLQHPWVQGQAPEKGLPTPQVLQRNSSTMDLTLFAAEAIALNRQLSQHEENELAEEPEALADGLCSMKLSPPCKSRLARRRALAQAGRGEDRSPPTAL
Description: as §1, §2, §3, §4, §5, §6, §7, §8

TNK1 = biological target: T38, TNK1 (Homo sapiens, UniProt Q13470)
T38 construct: purchased DiscoverX (DiscoveRx) KINOMEscan scanEDGE / KdELECT
Description: as §1, §2, §3, §4, §5, §6, §7, §8

ERK1 = biological target: T39, ERK1 (Homo sapiens, UniProt P27361)
T39 construct: purchased DiscoverX (DiscoveRx) KINOMEscan scanEDGE / KdELECT
Description: as §1, §2, §3, §4, §5, §6, §7, §8

- remaining binding at 1 µM (CDK11): 68%
- remaining binding at 1 µM (GSK3B): 95%
- remaining binding at 1 µM (RET): 92%
- remaining binding at 1 µM (PDGFRA): 8.7%
- remaining binding at 1 µM (SIK2): 96%
- remaining binding at 1 µM (ACVR1B (ALK4)): 100%
- remaining binding at 1 µM (RAF1): 88%
- remaining binding at 1 µM (PIK3CG): 100%
- remaining binding at 1 µM (PLK3): 90%
- remaining binding at 1 µM (ROCK2): 100%
- remaining binding at 1 µM (ABL1EP): 77%
- remaining binding at 1 µM (RIOK2): 100%
- remaining binding at 1 µM (CSF1R): 91%
- remaining binding at 1 µM (JNK1): 100%
- remaining binding at 1 µM (IGF1R): 100%
- remaining binding at 1 µM (SRPK3): 79%
- remaining binding at 1 µM (ZAP70): 100%
- remaining binding at 1 µM (DCAMKL1): 92%
- remaining binding at 1 µM (AKT1): 94%
- remaining binding at 1 µM (AXL): 96%
- remaining binding at 1 µM (ABL1EnP): 76%
- remaining binding at 1 µM (KIT(D816H)): 100%
- remaining binding at 1 µM (JNK2): 100%
- remaining binding at 1 µM (TYK2(JH1domain)): 92%
- remaining binding at 1 µM (BTK): 99%
- remaining binding at 1 µM (CDK2): 95%
- remaining binding at 1 µM (MINK): 51%
- remaining binding at 1 µM (PKACEalpha): 89%
- remaining binding at 1 µM (p38Ebeta): 100%
- remaining binding at 1 µM (ABL1(T315I)EP): 100%
- remaining binding at 1 µM (CDK3): 100%
- remaining binding at 1 µM (MARK3): 90%
- remaining binding at 1 µM (CSNK1D): 68%
- remaining binding at 1 µM (PIM3): 100%
- remaining binding at 1 µM (TSSK1B): 100%
- remaining binding at 1 µM (CDK9): 94%
- remaining binding at 1 µM (MKNK1): 92%
- remaining binding at 1 µM (TNK1): 78%
- remaining binding at 1 µM (ERK1): 97%
Structure (SMILES): O=c1c2cc(-c3ccnc4ccccc34)ccc2ncn1-c1ccc(N2CCOCC2)cc1 [compound 16, 3-(4-Morpholinophenyl)-6-(quinolin-4-yl)quinazolin-4(3H)-one]
